{"source": "patent US12180220B2", "about": "“Heteroaryl modulators of RAS GTPase” (Tosk, Inc., priority 2020, dated 2024)", "system": "SW620 Cell Lines", "test": "Cell proliferation / cytotoxicity assay (CellTiter-Glo 2.0)", "type": "cell-based", "settings": "Homo sapiens, SW-620; 72 hours incubation, luminescence (CellTiter-Glo 2.0), 2-fold dilutions starting at 50 μM", "method": "Compounds are assayed for inhibition of cell proliferation and killing cancer cells. Cytotoxicity assays are conducted according to the following general procedure. […] cells (ATCC CCL-227) are maintained in DMEM Low Glucose (Corning 10-014-CV) media supplemented with 10% fetal bovine serum and 1% PenStrep and grown at 37° C. in 5% CO2. Cells are plated into 96 well flat bottom plates (2 million/plate, ˜20,000/well, 200 μL media/well). The cells are allowed to settle and adhere to the plate bottom overnight. Compounds are diluted in media from a 10 mM stock solution starting at 50 μM, using 2-fold dilutions, in a column in a 96-well plate. Media is removed from the plate containing cells and replaced with media containing diluted compounds. Plates are incubated 72 hours at 37° C. in 5% CO2. Plates are allowed to come to room temperature and 100 μL CellTiter-Glo 2.0 reagent (Promega, G924C) is added at room temperature. Plates are shaken for 2 minutes, then allowed to stand for 15 minutes. Luminescence is read with FLx800 (BioTek Instruments). Data is plotted with GraphPad Prizm 8.0.", "data": [{"smiles": "Cc1nc(N[C@@H]2CCN(C(=O)OC(C)(C)C)[C@@H](C)C2)nc2ccc(-c3ccnc4c3OCCO4)cc12", "note": "[Compound 1A]", "values": [{"measurement": "IC50", "value": "< 5", "unit": "µM"}]}, {"smiles": "Cc1nc(NC2CCC(C(=O)NCc3ccc(Cl)cc3)CC2)nc2ccc(-c3cccc4c3OCCO4)cc12", "note": "(stereo not shown) [Compound 1B]", "values": [{"measurement": "IC50", "value": "5 to 10", "unit": "µM"}]}, {"smiles": "Cc1ccc2ccc(F)c(-c3ccc4nc(NC5CCN(C(=O)OC(C)(C)C)CC5)nc(C)c4c3)c2n1", "note": "[Compound 1C]", "values": [{"measurement": "IC50", "value": "< 5", "unit": "µM"}]}, {"smiles": "Cc1nc(N[C@@H]2CCN(C(=O)OC(C)(C)C)[C@H](C)C2)nc2ccc(-c3ccnc4c3OCCO4)cc12", "note": "[Compound 2A]", "values": [{"measurement": "IC50", "value": "< 5", "unit": "µM"}]}, {"smiles": "Cc1nc(N[C@H]2CC[C@@H](C(=O)NC3CCCCC3)CC2)nc2ccc(-c3cccc4c3OCCO4)cc12", "note": "[Compound 2B]", "values": [{"measurement": "IC50", "value": "5 to 10", "unit": "µM"}]}, {"smiles": "Cc1ccc2ccc(F)c(-c3ccc4nc(NC5CCN(C(=O)OC(C)C)CC5)nc(C)c4c3)c2n1", "note": "[Compound 2C]", "values": [{"measurement": "IC50", "value": "5 to 10", "unit": "µM"}]}, {"smiles": "Cc1nc(N[C@H]2CC[C@@H](NC(=O)OC(C)(C)C)CC2)nc2ccc(-c3ccnc4c3OCCO4)cc12", "note": "[Compound 3A]", "values": [{"measurement": "IC50", "value": "< 5", "unit": "µM"}]}, {"smiles": "Cc1nc(N[C@H]2CC[C@@H](C(=O)NC(C)C)CC2)nc2ccc(-c3cccc4c3OCCO4)cc12", "note": "[Compound 3B]", "values": [{"measurement": "IC50", "value": "5 to 10", "unit": "µM"}]}, {"smiles": "Cc1nc(N[C@H]2CC[C@H](NC(=O)OC(C)(C)C)CC2)nc2ccc(-c3ccnc4c3OCCO4)cc12", "note": "[Compound 4A]", "values": [{"measurement": "IC50", "value": "< 5", "unit": "µM"}]}, {"smiles": "Cc1nc(NC2CCN(C(=O)OC(C)(C)C)CC2)nc2ccc(-c3ccnc4ccccc34)cc12", "note": "[Compound 4C]", "values": [{"measurement": "IC50", "value": "5 to 10", "unit": "µM"}]}, {"smiles": "Cc1nc(N[C@H]2C[C@@H](NC(=O)OC(C)(C)C)C2)nc2ccc(-c3ccnc4c3OCCO4)cc12", "note": "[Compound 5A]", "values": [{"measurement": "IC50", "value": "< 5", "unit": "µM"}]}, {"smiles": "Cc1nc(NC2CCN(C(=O)OC(C)(C)C)CC2)nc2ccc(-c3cccc4c3CCCC4)cc12", "note": "[Compound 5B]", "values": [{"measurement": "IC50", "value": "5 to 10", "unit": "µM"}]}, {"smiles": "Cc1ccc2ccc(F)c(-c3ccc4nc(N[C@H]5CC[C@@H](NC(=O)OC(C)(C)C)CC5)nc(C)c4c3)c2n1", "note": "[Compound 5C]", "values": [{"measurement": "IC50", "value": "5 to 10", "unit": "µM"}]}, {"smiles": "Cc1nc(N[C@H]2C[C@H](NC(=O)OC(C)(C)C)C2)nc2ccc(-c3ccnc4c3OCCO4)cc12", "note": "[Compound 6A]", "values": [{"measurement": "IC50", "value": "< 5", "unit": "µM"}]}, {"smiles": "Cc1nc(N[C@H]2CC[C@@H](NC(=O)OC(C)(C)C)CC2)nc2ccc(-c3cccc4c3CCCC4)cc12", "note": "[Compound 6B]", "values": [{"measurement": "IC50", "value": "5 to 10", "unit": "µM"}]}, {"smiles": "Cc1nc(O[C@H]2CC[C@@H](NC(=O)OC(C)(C)C)CC2)nc2ccc(-c3ccnc4c3OCCO4)cc12", "note": "[Compound 7A]", "values": [{"measurement": "IC50", "value": "< 5", "unit": "µM"}]}, {"smiles": "Cc1nc(N[C@H]2CC[C@H](NC(=O)OC(C)(C)C)CC2)nc2ccc(-c3cccc4c3CCCC4)cc12", "note": "[Compound 7B]", "values": [{"measurement": "IC50", "value": "5 to 10", "unit": "µM"}]}, {"smiles": "Cc1nc(N[C@H]2CC[C@@H](NC(=O)OC(C)(C)C)CC2)nc2ccc(-c3cccc4c3OCC(=O)N4)cc12", "note": "[Compound 7C]", "values": [{"measurement": "IC50", "value": "5 to 10", "unit": "µM"}]}, {"smiles": "Cc1nc(N[C@H]2CC[C@@H](NC(=O)c3ccc(Cl)cc3)CC2)nc2ccc(-c3ccnc4c3OCCO4)cc12", "note": "[Compound 8A]", "values": [{"measurement": "IC50", "value": "< 5", "unit": "µM"}]}, {"smiles": "Cc1nc(N[C@@H]2C[C@H]3CC[C@@H](C2)N3C(=O)c2ccc(Cl)cc2)nc2ccc(-c3ccnc4c3OCCO4)cc12", "note": "[Compound 8C]", "values": [{"measurement": "IC50", "value": "< 5", "unit": "µM"}]}, {"smiles": "Cc1nc(N[C@H]2CC[C@@H](NC(=O)OC(C)(C)C)CC2)nc2ccc(-c3ccnc4c3OCCO4)c(F)c12", "note": "[Compound 9A]", "values": [{"measurement": "IC50", "value": "< 5", "unit": "µM"}]}, {"smiles": "Cc1nc(N[C@H]2CC[C@@H](NC(=O)OC(C)(C)C)CC2)nc2ccc(-c3c(Cl)cnc4c3OCCO4)cc12", "note": "[Compound 10A]", "values": [{"measurement": "IC50", "value": "< 5", "unit": "µM"}]}, {"smiles": "Cc1nc(N[C@H]2CCC[C@@H](NC(=O)OC(C)(C)C)C2)nc2ccc(-c3ccnc4c3OCCO4)cc12", "note": "[Compound 11A]", "values": [{"measurement": "IC50", "value": "< 5", "unit": "µM"}]}, {"smiles": "Cc1nc(N[C@H]2CC[C@@H](NC(=O)OC(C)(C)C)CC2)nc2ccc(-c3cc[n+]([O-])c4c3OCCO4)cc12", "note": "[Compound 12A]", "values": [{"measurement": "IC50", "value": "5 to 10", "unit": "µM"}]}, {"smiles": "Cc1nc(NC2CCN(Cc3ccc(Cl)cc3)CC2)nc2ccc(-c3ccnc4c3OCCO4)cc12", "note": "[Compound 13A]", "values": [{"measurement": "IC50", "value": "< 5", "unit": "µM"}]}, {"smiles": "Cc1nc(NC2CCN(C(=O)c3ccc(Cl)cc3)CC2)nc2ccc(-c3ccnc4c3OCCO4)cc12", "note": "[Compound 14A]", "values": [{"measurement": "IC50", "value": "< 5", "unit": "µM"}]}, {"smiles": "Cc1nc(N[C@H]2CCN(Cc3ccc(Cl)cc3)[C@@H](C)C2)nc2ccc(-c3ccnc4c3OCCO4)cc12", "note": "[Compound 15A]", "values": [{"measurement": "IC50", "value": "< 5", "unit": "µM"}]}, {"smiles": "Cc1nc(N[C@H]2CC[C@@H](NC3Cc4cccc(Cl)c4C3)CC2)nc2ccc(-c3ccnc4c3OCCO4)cc12", "note": "(stereo partly shown) [Compound 16A]", "values": [{"measurement": "IC50", "value": "< 5", "unit": "µM"}]}]}
